Values joined by “and” are separate entries in the source; they are usually repeats but may differ in a detail not shown here. Equal values may be shown once.
What was measured:
[1] = system: FoxP3 expression in CD4+ CD25− T cells; assay: Foxp3 (Treg marker) expression in TGFβ/IL-6 treated T cells; assay type: cell-based, mouse
Description: Low doses of halofuginone (HF) were tested to determine the ability of HF to enhance Treg differentiation, while suppressing Th17 differentiation. Nave. CD4+ T cells (CD4+ CD25−) were isolated from the spleen and peripheral lymph nodes of C57B/6 mice. T cells were then activated using anti-CD3 (0.3 μg/ml) and anti-CD28 (0.5 μg/ml) antibodies either in media alone (row 1, 4), TGFβ alone (3 ng/ml—row 2, 5) or TGFβ (3 ng/ml) plus IL-6 (30 ng/ml) (row 3, 6). […] T cells were cultured for 3 days and CD25 and Foxp3 expression (Treg marker genes) was determine by FACS staining and flow cytometric analyses. Simultaneously, T cells were harvested and re-stimulated for 4 hours using phorbol myristic acetate (PMA; 10 nM), Ionomycin (1 μM) and cytokine secretion was prevented using brefeldin A (20 μg/ml). Following stimulation, the production of IL-17 and IFNγ were determined by intracellular staining and analyzed via flow cytometry. […]
FACS analyses and sorting: All cell surface staining was performed in FACS buffer (PBS/2% FCS/0.1% NaN3) and antibodies were incubated with cells on ice for 20-30 minutes. […] All FACS data was acquired on a FACSCalibur flow cytometer (BD Pharmingen) and analyzed using FlowJo software (Treestar, Inc., Ashland, Oreg.). […]

CD4+ CD25− T cells = assay: CD4+ T cell proliferation, CD25 upregulation, cytokine production and Th1/Th2/iTreg differentiation; assay type: cell-based, mouse
Description: The dose-response of HF on CD4+ T cell proliferation, activation (i.e. CD25 upregulation) and differentiation to Th1, Th2 and Th17 lineages were evaluated. Purified murine naïve CD4+ CD25− T cells were activated using anti-CD3 (0.3 μg/ml) and anti-CD28 (0.5 μg/ml) antibodies and varying amounts of HF was added to each T cell culture condition (1.25 nM-40 nM). CD4+ T cell proliferation was monitored by CFSE dilution on day 3-post activation and CD25 expression was evaluated by FACS staining 2 days after activation. For T cell differentiation experiments, naïve T cells were activated as above in the presence of Th1 (IL-12 (20 ng/ml) plus anti-IL-4 (10 μg/ml)), Th2 (IL-4 (50 ng/ml) plus anti-IFNγ (0.5 mg/ml)) or Th17 (TGFβ (3 ng/ml) plus IL-6 (30 ng/ml)) polarizing conditions plus titrating amounts of HF (1.25 nM-40 nM) or MAZ1310 (40 nM). The percentage of Th17 cells, (IL-17^+ IFNγ^−) was evaluated on day 3 following activation, whereas the abundance of Th1 cells (IFNγ^+ IL-4) and Th2 cells (IL-4^+ IFNγ^−) was determined 5 days following activation. All cytokine expression was determined by intracellular staining following PMA+Ionomycin+Brefeldin A re-stimulation and all data was normalized to control (MAZ1310)-treated cells. […] Biol., vol. 80:1-8 (2006).
Cytokines, antibodies and T cell culture: Purified CD4^+ CD25^− T cells were activated in vitro as previously described (I. M. Djuretic et al., Nat Immunol 8, 145 (2007)) using 0.3 μg/ml hamster anti-mouse CD3 (clone 145-2C11) (ATCC—Manassas, Va.) and 0.5 μg/ml hamster anti-mouse CD28 (BD Pharmingen, San Jose, Calif.). Activated cell cultures were differentiated using the following combinations of cytokines and antibodies: iTreg=recombinant human TGFβ1 (3 ng/ml; R&D systems, Minneapolis, Minn.), Th17βTGFβ1 (3 ng/ml) plus recombinant mouse IL-6 (30 ng/ml, R&D systems). Th1 and Th2 differentiation was performed as previously described. (I. M. Djuretic et al., Nat Immunol 8, 145 (2007)). Human IL-2 supernatant (National Cancer Institute) was used in culture at 0.01 U/ml and was added at 48 hours-post activation when T cells were split into tissue culture wells lacking CD3 and CD28 antibodies, with the exception of Th17 cultures that were maintained in the absence of IL-2. All reagents were added at the time of T cell activation and again at 48-hours post activation unless indicated otherwise. For some experiments, purified CD4^+ CD25^− T cells, CD8^+ T cells or B cells were labeled with 1 μM CFSE (Invitrogen) prior to activation in accordance with manufacturers instructions.
Detection of cytokine production: Cytokines secreted into media supernatant were measured using the mouse Th1/Th2 cytometric bead array (CBA, BD Pharmingen) in accordance with manufacturers instructions. […]

SMILES: O=C(CC1NCCCC1O)Cn1cnc2cc(Br)c(Cl)cc2c1=O (racemic) [HF, 7-bromo-6-chloro-3-[3-(3-hydroxy-2-piperidinyl)-2-oxopropyl]-4(3H)-quinazolinone]
- Foxp3 expression of T cells differentiated in the presence of HF, in words ([1]; 10 nM HF, TGFβ plus IL-6, day 3): enhanced Foxp3 expression
- concentration increasing FoxP3 expression concomitantly with inhibiting IL-17 expression ([1]; TGFβ/IL-6 treated T-cells): 2.5 to 10 nM and 2.2 to 10 nM
- concentration inducing general inhibition of T and B cell activation, proliferation and effector function (CD4+ CD25− T cells; CD4+ T cell, CD8+ T cell and B220+ B cell, listed as halofuginone): 20 to 40 nM
- effect on T cell proliferation, CD25 upregulation or production of IL-2, TNF or IFNγ, in words (CD4+ CD25− T cells; low concentrations of HF (1-10 nM)): did not affect
- effect on Th1, Th2 or iTreg differentiation (IFNγ, IL-4 or Foxp3 expression), in words (CD4+ CD25− T cells; low-dose HF): failed to modulate
